{
  "source": "PubChem BioAssay AID1963854",
  "about": "(Molecular Pharmacology Branch, DTP, NCI, 2024);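 further: spheroids exposed to compounds for seven days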;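 on viability, T/C: 100% = DMSO vehicle control viability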",
  "tested_on": "186277-243-T-J2-PDC complex spheroid viability",
  "assay": "Anticancer human tumor 186277-243-T-J2-PDC patient-derived colon adenocarcinoma cell line growth inhibition [POLQ]",
  "conditions": "for IC50: curve of first compound; for viability, T/C: stronger effect = lower value",
  "in_short": "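PDC + HUVEC + MSC complex spheroids; POLQ inhibitors ± partner drugs; top conc. at/near clinical Cmax, else 10 microM (SN-38 1 microM), half-log dilutions; 37 degrees C, 5% CO2.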",
  "data": [
    {"smiles": "COc1cc(C2c3cc4c(cc3C(OC3OC5COC(C)OC5C(O)C3O)C3COC(=O)C23)OCO4)cc(OC)c1O", "note": "(configuration not stated) + Nc1ccc(C#CCN(C(=O)Cc2ncc(C(F)(F)F)cc2C(F)(F)F)c2ccc(F)cc2)nn1", "values": [
      {"measurement": "IC50", "setting": "second compound 0.0316 µM", "value": 4.57, "unit": "µM"},
      {"measurement": "IC50", "setting": "second compound 0.1 µM", "value": 3.96, "unit": "µM"},
      {"measurement": "IC50", "setting": "second compound 0.316 µM", "value": 3.19, "unit": "µM"},
      {"measurement": "IC50", "setting": "second compound 1 µM", "value": 3.74, "unit": "µM"},
      {"measurement": "IC50", "setting": "second compound 3.16 µM", "value": 3.6, "unit": "µM"},
      {"measurement": "IC50", "setting": "second compound 10 µM", "value": 2.63, "unit": "µM"},
      {"measurement": "viability, T/C", "setting": "second compound 0.0316 µM, first compound 0.0316 µM", "value": 96.2, "unit": "%"},
      {"measurement": "viability, T/C", "setting": "second compound 0.0316 µM, first compound 0.1 µM", "value": 104, "unit": "%"},
      {"measurement": "viability, T/C", "setting": "second compound 0.0316 µM, first compound 0.316 µM", "value": 128, "unit": "%"},
      {"measurement": "viability, T/C", "setting": "second compound 0.0316 µM, first compound 1 µM", "value": 93.6, "unit": "%"},
      {"measurement": "viability, T/C", "setting": "second compound 0.0316 µM, first compound 3.16 µM", "value": 60.5, "unit": "%"},
      {"measurement": "viability, T/C", "setting": "second compound 0.0316 µM, first compound 10 µM", "value": 29.7, "unit": "%"},
      {"measurement": "viability, T/C", "setting": "second compound 0.1 µM, first compound 0.0316 µM", "value": 93.7, "unit": "%"},
      {"measurement": "viability, T/C", "setting": "second compound 0.1 µM, first compound 0.1 µM", "value": 127, "unit": "%"},
      {"measurement": "viability, T/C", "setting": "second compound 0.1 µM, first compound 0.316 µM", "value": 137, "unit": "%"},
      {"measurement": "viability, T/C", "setting": "second compound 0.1 µM, first compound 1 µM", "value": 86.9, "unit": "%"},
      {"measurement": "viability, T/C", "setting": "second compound 0.1 µM, first compound 3.16 µM", "value": 59.7, "unit": "%"},
      {"measurement": "viability, T/C", "setting": "second compound 0.1 µM, first compound 10 µM", "value": 28.1, "unit": "%"},
      {"measurement": "viability, T/C", "setting": "second compound 0.316 µM, first compound 0.0316 µM", "value": 97.8, "unit": "%"},
      {"measurement": "viability, T/C", "setting": "second compound 0.316 µM, first compound 0.1 µM", "value": 106, "unit": "%"},
      {"measurement": "viability, T/C", "setting": "second compound 0.316 µM, first compound 0.316 µM", "value": 135, "unit": "%"},
      {"measurement": "viability, T/C", "setting": "second compound 0.316 µM, first compound 1 µM", "value": 80, "unit": "%"},
      {"measurement": "viability, T/C", "setting": "second compound 0.316 µM, first compound 3.16 µM", "value": 55.9, "unit": "%"},
      {"measurement": "viability, T/C", "setting": "second compound 0.316 µM, first compound 10 µM", "value": 28.1, "unit": "%"},
      {"measurement": "viability, T/C", "setting": "second compound 1 µM, first compound 0.0316 µM", "value": 92.2, "unit": "%"},
      {"measurement": "viability, T/C", "setting": "second compound 1 µM, first compound 0.1 µM", "value": 115, "unit": "%"},
      {"measurement": "viability, T/C", "setting": "second compound 1 µM, first compound 0.316 µM", "value": 123, "unit": "%"},
      {"measurement": "viability, T/C", "setting": "second compound 1 µM, first compound 1 µM", "value": 79, "unit": "%"},
      {"measurement": "viability, T/C", "setting": "second compound 1 µM, first compound 3.16 µM", "value": 58.3, "unit": "%"},
      {"measurement": "viability, T/C", "setting": "second compound 1 µM, first compound 10 µM", "value": 28.4, "unit": "%"},
      {"measurement": "viability, T/C", "setting": "second compound 3.16 µM, first compound 0.0316 µM", "value": 108, "unit": "%"},
      {"measurement": "viability, T/C", "setting": "second compound 3.16 µM, first compound 0.1 µM", "value": 110, "unit": "%"},
      {"measurement": "viability, T/C", "setting": "second compound 3.16 µM, first compound 0.316 µM", "value": 125, "unit": "%"},
      {"measurement": "viability, T/C", "setting": "second compound 3.16 µM, first compound 1 µM", "value": 74.6, "unit": "%"},
      {"measurement": "viability, T/C", "setting": "second compound 3.16 µM, first compound 3.16 µM", "value": 59.8, "unit": "%"},
      {"measurement": "viability, T/C", "setting": "second compound 3.16 µM, first compound 10 µM", "value": 24.4, "unit": "%"},
      {"measurement": "viability, T/C", "setting": "second compound 10 µM, first compound 0.0316 µM", "value": 109, "unit": "%"},
      {"measurement": "viability, T/C", "setting": "second compound 10 µM, first compound 0.1 µM", "value": 116, "unit": "%"},
      {"measurement": "viability, T/C", "setting": "second compound 10 µM, first compound 0.316 µM", "value": 102, "unit": "%"},
      {"measurement": "viability, T/C", "setting": "second compound 10 µM, first compound 1 µM", "value": 65.9, "unit": "%"},
      {"measurement": "viability, T/C", "setting": "second compound 10 µM, first compound 3.16 µM", "value": 52.6, "unit": "%"},
      {"measurement": "viability, T/C", "setting": "second compound 10 µM, first compound 10 µM", "value": 24.3, "unit": "%"}
    ]}
  ]
}
